This note sets out measurements from patent US4243672A, “5-Substituted 2-pyrroleglyoxylic acids, 5-substituted 2-pyrrolylglycines and derivatives thereof” (Pfizer Inc., priority 1978, dated 1981).

In assay [1] the test system is diaphragm tissue from fat-fed rats. Put plainly: Pyruvate oxidation by diaphragm tissue from fat-fed rats (14C-pyruvate into CO2) in vitro. The class given is cell-based. The settings on record: Rattus norvegicus, stimulation of pyruvate oxidation, concentration 0.5 mmolar. On the procedure:
Diaphragm tissue is obtained from rats fed on a high fat diet similar to 'Diet B' described by Zaragoza and Felber [Horm, Metab. Res., 2, 323 (1970)]. Pyruvate oxidation by such tissue is assessed by measurement of the rate of incorporation of carbon-14 from carbon-14-labelled pyruvate into carbon dioxide in vitro, as described by Bringolf [Eur. J. Biochem., 26, 360 (1972)]. The rate of pyruvate oxidation is depressed by 50-75% compared with that by diaphragm tissue from rats fed on a normal diet. When the compounds of the invention are added to the medium, they are found to stimulate pyruvate oxidation by diaphragm tissue from fat-fed rats in a dose dependent manner.

Assay [2] deals with pyruvate dehydrogenase enzyme (PDH). The assay can be described thus: Proportion of active pyruvate dehydrogenase (PDHa/PDHt) in hearts of fat-fed rats after dosing. The class given is in vivo, rat. The settings on record: heart, after 1.5 hours. On the procedure:
Rats fed on a high fat diet as in the previous test, are treated either with placebo or with the compound of formula (I) or (II) by subcutaneous or intravenous injection or by oral administration. After 1.5 hours the rat hearts are removed and homogenized under conditions which minimize changes in the proportion of the pyruvate dehydrogenase enzyme (PDH) which is present in the active form, as described by Whitehouse and Randle [Biochem. J., 134, 651 (1973)]. The total amount of enzyme present (PDHt) and the amount which is present in the active form (PDHa) are assessed by a method similar to that described by Taylor et al. [J. Biol. Chem., 248, 73 (1973)]. The fat-feeding process is found to depress the ratio PDHa/PDHt from a normal value of about 0.7 to a value in the range from 0.05 to 0.2. Treatment of fat-fed rats with the compounds of formula (I) or (II) either parenterally or orally, increases this ratio in a dose dependent manner.
The increase in the PDHa/PDHt ratio affected by various of the compounds for the Examples at the dose level indicated is shown in the following Table: The compounds were administered by subcutaneous injection except where indicated by (0) where the compounds were administered orally.

The test system of a further assay is heart. Put plainly: Myocardial blood flow and metabolism in fasted, closed-chest, anaesthetized, electrically paced beagle dogs. The settings on record: 0.02 to 0.1 millimole/kg. intravenously. The assay is classed as in vivo. On the procedure: The ability of compounds of formula (I) or (II) to reduce oxygen demand and affect the relative utilization of carbohydrate and lipid metabolites in the heart has been assessed by measuring the effect of the compounds on myocardial blood flow and metabolism in fasted, closed-chest, anaesthetized beagle dogs, with cardiac catherization to enable simultaneous sampling of coronary sinus and arterial blood to be carried out. Coronary sinus blood flow is measured by the hydrogen gas clearance technique described by Aukland et al. [Circulation Res., 14, 164 (1964)]. The heart is paced electrically at 155 beats/minute and recordings of hemodynamic parameters (blood pressure, left ventricular pressure and the first derivative of the latter) are made continuously. Control measurement of coronary blood flow are made and samples of blood taken at 40 minute intervals, both in an untreated animal and in the same animal dose with an infusion of isoprenaline (60 ng./kg./min.), which both stimulates cardiac contraction and increases plasma free fatty acid levels. The compound of formula (I) or (II) is then administered intravenously and measurements are made and samples taken again, 40 minutes and 90 minutes later. The blood samples from the artery and coronary sinus are analyzed for oxyhemoglobin, pyruvate and free fatty acid (FFA) content, differences between those of the arterial and coronary sinus blood, when multiplied by coronary blood flow, being a measure of oxygen consumption, pyruvate uptake and FFA uptake by the myocardium respectively.

Where [3] appears, read: 0.6 mMol/kg., administered orally (0).
Setting [4] is: 0.6 mMol/kg., subcutaneous injection.
Setting [5] is: 0.3 mMol/kg., administered orally (0).
[6] abbreviates: 1.2 mMol/kg., subcutaneous injection.
The mark [7] stands for this setting: 0.3 mMol/kg., subcutaneous injection.

The structures appear in SMILES notation. Counter-ions that a name gives are not always drawn.

In assay [1], `NC(C(=O)O)c1ccc(CC2CC2)[nH]1` (racemic) [Example 59, DL-2-(5-Cyclopropylmethyl-2-pyrrolyl)glycine] gave an activation at 500 µM of 29%. In assay [2] (setting [3]), the PDHa/PDHt ratio worked out at 0.21.

Molecule `CCc1ccc(C(N)C(=O)O)[nH]1` (racemic) [Example 60, DL-2-(5-Ethyl-2-pyrrolyl)glycine] yielded an activation at 500 µM in assay [1] of 59%. The PDHa/PDHt ratio in assay [2] (setting [4]) stood at 0.16.

For `CCCCCc1ccc(C(N)C(=O)O)[nH]1` (racemic) [Example 61, DL-2-(5-n-Pentyl-2-pyrrolyl)glycine], in assay [1], the activation at 500 µM amounted to 84%. For the same molecule, the PDHa/PDHt ratio in assay [2] (setting [3]) amounted to 0.13.

`NC(=O)C(N)c1ccc(CC2CC2)[nH]1` (racemic) [Example 64, DL-2-(5-Cyclopropylmethyl-2-pyrrolyl)glycinamide] had an activation at 500 µM in assay [1] of 87%. Besides, the PDHa/PDHt ratio in assay [2] (setting [4]) turned out to be 0.27. Besides, in the assay with heart, the “effect on myocardial blood flow or any of the hemodynamic parameters measured” value is recorded as “no significant affect” and the myocardial glucose uptake result was “increased”. Moreover, the “decrease of myocardial oxygen consumption” value in the assay on heart (in the presence of isoprenaline) is recorded as “about 20%”. Moreover, the “increase of myocardial pyruvate uptake” value in the assay on heart (presence and absence of isoprenaline, for at least 40 minutes after dosing) is listed as “at least 2 fold”.

In the case of `CCOC(=O)C(=O)c1ccc(C)[nH]1` [Example 1, 5-Methyl-2-pyrrolylglyoxylic Acid Ethyl Ester], the activation at 500 µM in assay [1] stood at 32%.

As for `CCOC(=O)C(=O)c1ccc(C(C)(C)C)[nH]1` [Example 2], the activation at 500 µM in assay [1] was found to be 50%.

With `CCCCc1ccc(C(=O)C(=O)OCC)[nH]1` [Example 6], the PDHa/PDHt ratio in assay [2] (setting [5]) was 0.23.

In the case of `CCOC(=O)C(=O)c1ccc(CC(C)C)[nH]1` [Example 9], the activation at 500 µM in assay [1] came to 65%.

In assay [1], `CCOC(=O)C(=O)c1ccc(Cc2ccccc2)[nH]1` [Example 18] yielded an activation at 500 µM of 19%.

Turning to `CCc1ccc(C(=O)C(=O)O)[nH]1` [Example 20, 5-Ethyl-2-Pyrrolylglyoxylic Acid], in assay [1], the activation at 500 µM is 66%. Besides, in assay [2] (setting [6]), the PDHa/PDHt ratio stood at 0.85.

The molecule `O=C(O)C(=O)c1ccc(CC2CC2)[nH]1` [Example 21, 5-Cyclopropylmethyl-2-pyrrolylglyoxylic Acid Sodium Salt] yielded an activation at 500 µM in assay [1] of 147%. Further, the PDHa/PDHt ratio in assay [2] (setting [7]) turned out to be 0.44; in assay [2] (setting [4]) it was 0.71.

`Cc1ccc(C(=O)C(=O)O)[nH]1` [Example 22] had an activation at 500 µM in assay [1] of 51%. Also, in assay [2] (setting [6]), the PDHa/PDHt ratio was 0.84.

Turning to `CCCc1ccc(C(=O)C(=O)O)[nH]1` [Example 23], the activation at 500 µM in assay [1] amounted to 78%. In addition, the PDHa/PDHt ratio was 0.66 in assay [2] (setting [4]) and 0.82 in assay [2] (setting [6]).

`CCCCc1ccc(C(=O)C(=O)O)[nH]1` [Example 24, 2-(5-n-butyl-2-pyrrolyl)glyoxylic acid] showed an activation at 500 µM in assay [1] of 140%. Besides, in assay [2] (setting [7]), the PDHa/PDHt ratio is 0.42.

For the molecule `CC(C)Cc1ccc(C(=O)C(=O)O)[nH]1` [Example 25], the activation at 500 µM in assay [1] was determined as 59%. The PDHa/PDHt ratio is recorded as 0.45 in assay [2] (setting [4]) and 1.00 in assay [2] (setting [6]).

`CC(C)(C)c1ccc(C(=O)C(=O)O)[nH]1` [Example 26] yielded an activation at 500 µM in assay [1] of 31%.

The molecule `CCCCCc1ccc(C(=O)C(=O)O)[nH]1` [Example 27, 2-(5-n-amyl-2-pyrrolyl)glyoxylic acid] displayed an activation at 500 µM in assay [1] of 157%. Further, in assay [2] (setting [4]), the PDHa/PDHt ratio amounted to 0.13.

In assay [1], `CC(C)(C)Cc1ccc(C(=O)C(=O)O)[nH]1` [Example 28] showed an activation at 500 µM of 88%.

`CCCCCCc1ccc(C(=O)C(=O)O)[nH]1` [Example 29, 2-(5-n-hexyl-2-pyrrolyl)glyoxylic acid] registered an activation at 500 µM in assay [1] of 78%. The PDHa/PDHt ratio in assay [2] (setting [5]) came out at 0.40.

With `CC(C)(C)CCc1ccc(C(=O)C(=O)O)[nH]1` [Example 30], the activation at 500 µM in assay [1] was 44%.

In assay [1], `O=C(O)C(=O)c1ccc(CCC2CCCCC2)[nH]1` [Example 31] had an activation at 500 µM of 125%. Also, in assay [2] (setting [5]), the PDHa/PDHt ratio stood at 0.20.

As to `O=C(O)C(=O)c1ccc(Cc2ccccc2)[nH]1` [Example 32], the activation at 500 µM in assay [1] turned out to be 43%. The PDHa/PDHt ratio in assay [2] (setting [4]) was 0.16; in assay [2] (setting [6]), 0.83.

In the case of `O=C(O)C(=O)c1ccc(CCc2ccccc2)[nH]1` [Example 33], the activation at 500 µM in assay [1] was determined as 69%. Besides, the PDHa/PDHt ratio in assay [2] (setting [7]) is recorded as 0.13.

For the molecule `CSc1ccc(C(=O)C(=O)O)[nH]1` [Example 34], in assay [1], the activation at 500 µM worked out at 53%. The PDHa/PDHt ratio in assay [2] (setting [6]) is given as 0.42.

Molecule `O=C(O)C(=O)c1ccc(CCC2C=CCC2)[nH]1` (centres unmarked) [Example 35] gave an activation at 500 µM in assay [1] of 209%. For the same molecule, the PDHa/PDHt ratio in assay [2] (setting [7]) came out at 0.18.

For the molecule `O=C(O)C(=O)c1ccc(CC2CCCC2)[nH]1` [Example 36], in assay [1], the activation at 500 µM worked out at 154%. Also, the PDHa/PDHt ratio in assay [2] (setting [7]) was determined as 0.20.

In assay [1], `O=C(O)C(=O)c1ccc(CC2CCCCC2)[nH]1` [Example 37] came in with an activation at 500 µM of 124%. For the same molecule, in assay [2] (setting [7]), the PDHa/PDHt ratio was 0.12.

In assay [1], `O=C(O)C(=O)c1ccc(CCC2CCCC2)[nH]1` [Example 38] had an activation at 500 µM of 80%. Also, in assay [2] (setting [7]), the PDHa/PDHt ratio was 0.25.

`CCCSc1ccc(C(=O)C(=O)OCC)[nH]1` [Example 39, 5-n-Propylthio-2-pyrrolylglyoxylic Acid Ethyl Ester] showed an activation at 500 µM in assay [1] of 44%.

For `CCCSc1ccc(C(=O)C(=O)O)[nH]1` [Example 40, 5-n-Propylthio-2-pyrrolylglyoxylic Acid], the activation at 500 µM in assay [1] came to 80%. For the same molecule, in assay [2] (setting [7]), the PDHa/PDHt ratio came out at 0.27.
